The target of data set [1] is Sigma non-opioid intracellular receptor 1 (Cavia porcellus, UniProt Q60492). Kind of data set: Displacement of [3H]-(+)-pentazocine from guinea pig brain membrane sigma 1 receptor assessed as inhibition constant measured after 120 mins by scintillation counting method. The data set is classed as cell membranes.
For data set [2], the target named is Glutamate receptor ionotropic, NMDA 2B (Mus musculus, UniProt P35438+Q01097). Kind of data set: Displacement of [3H]ifenprodil from GluN2B in mouse LTK cells assessed as inhibition constant measured after 120 mins by scintillation counting method. The data set is classed as cell-based. Background: Loss of bound radioactivity is the signal in a displacement assay; it reports binding, not function.
Sequence of Glutamate receptor ionotropic, NMDA 2B (Q01097 whole entry, one chain of several): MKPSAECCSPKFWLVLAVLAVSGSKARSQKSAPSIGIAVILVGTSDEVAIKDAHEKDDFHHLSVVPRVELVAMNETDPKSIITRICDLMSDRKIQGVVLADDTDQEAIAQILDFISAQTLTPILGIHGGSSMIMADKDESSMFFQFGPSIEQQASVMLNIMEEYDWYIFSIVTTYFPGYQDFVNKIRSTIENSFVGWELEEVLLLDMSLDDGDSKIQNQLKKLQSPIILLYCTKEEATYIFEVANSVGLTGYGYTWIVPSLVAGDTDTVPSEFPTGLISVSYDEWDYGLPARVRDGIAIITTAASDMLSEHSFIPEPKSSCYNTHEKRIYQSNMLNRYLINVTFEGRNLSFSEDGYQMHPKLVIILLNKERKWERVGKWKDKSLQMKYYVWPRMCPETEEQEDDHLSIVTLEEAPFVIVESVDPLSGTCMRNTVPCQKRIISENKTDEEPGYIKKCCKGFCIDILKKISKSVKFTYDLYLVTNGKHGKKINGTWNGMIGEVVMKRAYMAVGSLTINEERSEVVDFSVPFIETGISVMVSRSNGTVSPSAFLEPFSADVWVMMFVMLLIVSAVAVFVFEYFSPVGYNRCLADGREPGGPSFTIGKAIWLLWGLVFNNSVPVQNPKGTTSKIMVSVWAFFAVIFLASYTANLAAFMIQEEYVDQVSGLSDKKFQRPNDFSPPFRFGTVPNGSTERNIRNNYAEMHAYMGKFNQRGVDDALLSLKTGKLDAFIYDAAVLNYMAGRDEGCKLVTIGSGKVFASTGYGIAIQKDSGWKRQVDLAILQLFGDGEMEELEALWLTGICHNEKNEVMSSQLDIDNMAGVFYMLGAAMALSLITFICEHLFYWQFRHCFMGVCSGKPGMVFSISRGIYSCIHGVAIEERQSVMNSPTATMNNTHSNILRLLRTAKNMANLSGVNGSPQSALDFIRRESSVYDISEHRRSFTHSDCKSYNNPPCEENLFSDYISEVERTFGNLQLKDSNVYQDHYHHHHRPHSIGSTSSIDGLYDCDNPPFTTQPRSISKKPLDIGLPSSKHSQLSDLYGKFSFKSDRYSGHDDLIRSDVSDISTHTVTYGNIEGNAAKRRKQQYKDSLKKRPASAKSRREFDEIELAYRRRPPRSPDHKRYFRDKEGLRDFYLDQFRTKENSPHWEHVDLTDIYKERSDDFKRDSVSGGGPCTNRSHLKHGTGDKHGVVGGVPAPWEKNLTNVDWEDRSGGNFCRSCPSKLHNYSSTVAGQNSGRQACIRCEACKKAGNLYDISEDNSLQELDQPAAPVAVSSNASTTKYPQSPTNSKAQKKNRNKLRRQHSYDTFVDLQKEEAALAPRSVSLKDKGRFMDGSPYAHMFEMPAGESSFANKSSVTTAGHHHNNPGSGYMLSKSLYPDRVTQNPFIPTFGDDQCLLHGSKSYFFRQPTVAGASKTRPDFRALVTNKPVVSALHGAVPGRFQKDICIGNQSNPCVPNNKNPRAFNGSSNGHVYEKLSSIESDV

The target in data set [3] is T1, Sigma intracellular receptor 2 (Rattus norvegicus, UniProt Q5U3Y7).
T1 sequence (Q5U3Y7 whole entry): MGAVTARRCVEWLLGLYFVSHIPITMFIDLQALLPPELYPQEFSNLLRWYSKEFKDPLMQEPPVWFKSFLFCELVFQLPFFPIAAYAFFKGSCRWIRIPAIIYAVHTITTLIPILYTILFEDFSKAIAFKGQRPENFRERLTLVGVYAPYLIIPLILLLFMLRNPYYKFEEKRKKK
Put plainly: Displacement of [3H]di-o-tolylguanidine from rat liver membrane sigma 2 receptor assessed as inhibition constant measured after 120 mins by scintillation counting method. The data set is classed as cell membranes.

A short description of data set [4]: Lipophilicity, logD of the compound at pH 7.4 by LC-MS analysis. Conditions: buffer. The data set is classed as physicochemical.
A short description of data set [5]: Plasma protein binding in human by HPAC method. The data set is classed as ADME, cell-free. The settings on record: read-out: PPB (converted).
Data set [6] concerns the target T2, Sigma intracellular receptor 2 (Rattus norvegicus) (UniProt Q5U3Y7).
T2 sequence (whole entry): T1 sequence (Q5U3Y7 whole entry)
Put plainly: Displacement of [3H]di-o-tolylguanidine from rat liver membrane sigma 2 receptor at 1 uM measured after 120 mins by scintillation counting method relative to control. The data set is classed as cell membranes.

The target of data set [7] is Glutamate receptor ionotropic, NMDA 2B (Mus musculus) (UniProt Q01097). Put plainly: Displacement of [3H]ifenprodil from GluN2B in mouse LTK cells at 1 uM measured after 120 mins by scintillation counting method relative to control. The data set is classed as cell-based.
Sequence of Glutamate receptor ionotropic, NMDA 2B (Mus musculus) (Q01097 whole entry): as the sequence (Q01097 whole entry, one chain of several) above
For data set [8], the system named is Mus musculus. Put plainly: Antiallodynic activity in ip dosed capsaicin-induced allodynia CD1 mouse model measured after 15 mins. The data set is classed as functional. The settings on record: CD1, 0.25 h.
Data set [9] relates to Mus musculus. Put plainly: Antiallodynic activity in capsaicin-induced allodynia CD1 mouse model at 16 mg/kg, ip measured after 15 mins relative to control. The data set is classed as functional. Conditions: 0.25 h.
The subject of data set [10] is Mus musculus. Put plainly: Antiallodynic activity in capsaicin-induced mechanical allodynia CD1 mouse model assessed as increase in paw withdrawal latency at 32 mg/kg, sc pretreated for 30 mins followed by capsaicin addition and measured after 15 mins. The data set is classed as functional, organism-based. The settings on record: time 45.0 min.
The test system of data set [11] is Mus musculus. Put plainly: Antiallodynic activity in capsaicin-induced mechanical allodynia CD1 mouse model assessed as increase in paw withdrawal latency at 4 to 32 mg/kg, sc pretreated for 30 mins followed by capsaicin addition and measured after 15 mins. The data set is classed as functional, organism-based. The settings on record: dose 4-32 mg/kg, time 45.0 min.

For data set [12], the system named is Mus musculus. Put plainly: Antiallodynic activity in capsaicin-induced allodynia CD1 mouse model at 16 mg/kg, sc pretreated for 30 mins followed by capsaicin addition and measured after 15 mins relative to control. The data set is classed as functional. The settings on record: time 45 min, 0.75 h.
In data set [13] the test system is Mus musculus. Put plainly: Antiallodynic activity in capsaicin-induced mechanical allodynia CD1 mouse model assessed as increase in paw withdrawal latency at 16 mg/kg, sc pretreated with PRE-084 followed by compound addition. The data set is classed as functional, organism-based.
The subject of data set [14] is Mus musculus. Put plainly: Antiallodynic activity in sc dosed capsaicin-induced allodynia CD1 mouse model pretreated for 30 mins followed by capsaicin addition and measured after 15 mins. The data set is classed as functional. Conditions: CD1, 0.75 h, time 45 min.
Data set [15] can be described thus: Metabolic stability in C57BL/6 mouse liver microsomes assessed as compound remaining incubated for 90 mins in presence of NADPH by LC-MS analysis. The settings on record: read-out: Activity. The data set is classed as ADME, Microsome.

We go through 25 molecules from ChEMBL document CHEMBL5380826, “Conformationally Restricted σ1 Receptor Antagonists from (-)-Isopulegol” (J Med Chem, 2023).

Activity calls are given as the source filed them. The calls are words filed in the database; no cut-off is given here.

Sequence of Sigma non-opioid intracellular receptor 1 (Q60492 whole entry): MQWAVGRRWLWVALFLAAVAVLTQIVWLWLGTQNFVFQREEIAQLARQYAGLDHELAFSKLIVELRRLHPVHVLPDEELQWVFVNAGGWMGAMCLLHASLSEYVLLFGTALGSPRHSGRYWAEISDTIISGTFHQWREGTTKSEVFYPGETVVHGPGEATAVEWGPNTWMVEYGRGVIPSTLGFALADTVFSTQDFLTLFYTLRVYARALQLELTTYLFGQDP

For orientation: Ki means a dissociation constant, usually derived from enzyme kinetics or from competition with a known ligand. For the molecule `C[C@@H]1CC[C@@H]2[C@H](C1)OCO[C@]2(C)CN1CCC(Cc2ccccc2)CC1`, the Ki in [1] stood at 3.5 nM; in data set [2], 267 nM; in [3], 123 nM.

Turning to `C[C@@H]1CC[C@@H]2[C@H](C1)O[C@@H]1CN(CCCCc3ccccc3)C[C@@]2(C)O1`, the Ki in data set [1] worked out at 54 nM; in data set [2], 890 nM; in data set [3], 779 nM.

By logD is commonly meant lipophilicity at a set pH, counting ionised and neutral species. `C[C@@H]1CC[C@@H]2[C@@H](C1)OCO[C@@]2(C)CN1CCC(Cc2ccccc2)CC1`: the Ki came out at 5 nM in data set [1], 36 nM in data set [2] and 119 nM in data set [3]. The same molecule returned a logD in [4] of 3.45.

As to `C[C@@H]1CC[C@@H]2[C@@H](C1)OCO[C@]2(C)CN1CCC(Cc2ccccc2)CC1`, the inhibition constant Ki was 1.6 nM in data set [1], 370 nM in [2] and 379 nM in [3].

Usually inhibition stands for the share of the control response that was lost under treatment. Lower therefore signals a weak effect. For `C[C@@H]1CC[C@@H]2[C@@H](C1)O[C@H]1CN(CCCCc3ccccc3)C[C@]2(C)O1`, the fraction unbound in data set [5] is < 0.02. Further, in data set [1], the Ki came out at 2100 nM. Moreover, the inhibition in [6] turned out to be 0%; in [7] it was 6%. In addition, the logD in [4] amounted to 3.96.

Consider `CN1CCN(CCc2ccc(Cl)c(Cl)c2)CC1`, for which the figures for the Ki in data set [1] and in [2] were 449 nM and 49 nM, respectively.

Consider `COc1ccc(CC2CCN(C[C@](C)(O)[C@@H]3CC[C@@H](C)C[C@H]3O)CC2)cc1`, for which the Ki in [1] was found to be 2.9 nM; in data set [2], 45 nM; in [3] it was 75 nM.

For the molecule `C[C@@H]1CC[C@@H]2[C@H](C1)OCO[C@@]2(C)CN1CCC(Cc2ccccc2)CC1`, the results for the Ki in data set [1], in [2] and in data set [3] were 4.9 nM, 205 nM and 145 nM, respectively.

In the case of `C[C@@H]1CC[C@@H]2[C@@H](C1)OCO[C@@]2(C)CNCCCCc1ccccc1`, the fraction unbound in data set [5] is 0.061. In addition, the figures for the Ki in [1], in data set [2] and in data set [3] were 69 nM, 61 nM and 86 nM, respectively. This molecule also displayed a logD in data set [4] of 2.67.

As for `C[C@@H]1CC[C@@H]([C@](C)(O)CNCCCCc2ccccc2)[C@H](O)C1`, the Ki in data set [1] worked out at 31 nM; in [2], 508 nM; in data set [3], 207 nM.

A word on the ED50: it is the dose that gives a 50% effect, or the effect in half of the subjects. `Cc1cc(OCCN2CCOCC2)nn1-c1ccc2ccccc2c1`: in the data set with Mus musculus [8], the ED50 worked out at 26.3 mg/kg. Moreover, the Ki is > 1000 nM in [1] and > 58 nM in [2]. Also, the Activity in the data set with Mus musculus [9] came to 43%. Besides, the outcome in the data set with Mus musculus [10] was Active.

With `C[C@@H]1CC[C@@H]2[C@H](C1)OC1CN(CCCCc3ccccc3)C[C@]2(C)O1` (single isomer, unassigned), in [1], the Ki was 725 nM. The inhibition in data set [6] and in [7] was 0% in each case.

Take `C[C@@H]1CC[C@@H]2[C@@H](C1)O[C@@H]1CN(CCCCc3ccccc3)C[C@@]2(C)O1`: the Ki in data set [1] came out at 805 nM; in data set [3] it was 1600 nM. The inhibition in [7] worked out at 0%.

For the molecule `C[C@@H]1CC[C@@H]([C@@](C)(O)CN2CCC(Cc3ccccc3)CC2)[C@H](O)C1`, the outcome with Mus musculus [11] was Active. For the same molecule, the fraction unbound in data set [5] was 0.122. Also, the Ki stood at 1.2 nM in [1], 53 nM in data set [2] and 36 nM in [3]. Moreover, in the data set with Mus musculus [12], the Activity is on record as ~89%. Besides, the outcome with Mus musculus [13] was inactive. The logD in data set [4] worked out at 3.05. The ED50 in the data set on Mus musculus [14] is ~8 mg/kg. The remaining at 1.5 h in data set [15] was 19%.

In the case of `C[C@@H]1CC[C@@H]([C@@](C)(O)CN2CCC(Cc3ccccc3)CC2)[C@@H](O)C1`, the Ki in data set [1] was determined as 1 nM; in data set [2], 125 nM; in [3], 172 nM.

For `C[C@@H]1CC[C@@H]([C@@](C)(O)CNCCCCc2ccccc2)[C@H](O)C1`, the fraction unbound in data set [5] was 0.073. Further, the values for the Ki in data set [1], in [2] and in data set [3] were 8.2 nM, 1300 nM and 850 nM, respectively. In addition, the logD in data set [4] was 1.84.

For the molecule `C[C@@H]1CC[C@@H]2[C@@H](C1)OC(C)(C)O[C@]2(C)CN1CCC(Cc2ccccc2)CC1`, the Ki in data set [1] turned out to be 114 nM; in data set [2], 423 nM; in data set [3], 880 nM.

Take `C[C@@H]1CC[C@@H]2[C@H](C1)OCO[C@]2(C)CNCCCCc1ccccc1`: the figures for the Ki in data set [1], in data set [2] and in data set [3] were 42 nM, 263 nM and 273 nM, respectively.

Turning to `C[C@@H]1CC[C@@H]([C@](C)(O)CN2CCC(Cc3ccccc3)CC2)[C@@H](O)C1`, the Ki stood at 18 nM in data set [1], 363 nM in data set [2] and 216 nM in data set [3].

Turning to `C[C@@H]1CC[C@@H]2[C@H](C1)OCO[C@@]2(C)CNCCCCc1ccccc1`, the results for the Ki in [1], in data set [2] and in data set [3] were 8.6 nM, 313 nM and 525 nM, respectively.

Regarding `C[C@@H]1CC[C@@H]2[C@@H](C1)OC(C)(C)O[C@@]2(C)CN1CCC(Cc2ccccc2)CC1`, the figures for the Ki in data set [1], in data set [2] and in data set [3] were 16 nM, 1300 nM and 649 nM, respectively.

For `C[C@@H]1CC[C@@H]([C@](C)(O)CNCCCCc2ccccc2)[C@@H](O)C1`, the Ki was determined as 43 nM in [1], 511 nM in data set [2] and 265 nM in data set [3].

As for `C[C@@H]1CC[C@@H]2[C@@H](C1)OCO[C@]2(C)CNCCCCc1ccccc1`, the Ki in data set [1] came out at 9.7 nM; in data set [2], 408 nM; in [3], 322 nM.

For `C[C@@H]1CC[C@@H]([C@@](C)(O)CNCCCCc2ccccc2)[C@@H](O)C1`, the Ki turned out to be 7 nM in data set [1], 1060 nM in [2] and 424 nM in data set [3].

Take `C[C@@H]1CC[C@@H]([C@](C)(O)CN2CCC(Cc3ccccc3)CC2)[C@H](O)C1`: the Ki in data set [1] amounted to 2.8 nM; in [2], 92 nM; in [3] it was 194 nM.
